Values after ≈ are worked out from the molar mass of the structure shown. Where two headings read alike, the source gives them in different places.
Legend:
Acinetobacter SP CMX 669 = assay: In-vitro antimicrobial activity primary screen (agar dilution MIC); format: cell-based; conditions: Acinetobacter, SPCMX669, 24 h, Acinetobacter SP CMX 669; BHI agar, 20-24 h
Method in brief: (§1)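 Steps: prepare 12 BHI agar plates with serial aqueous dilutions; inoculate with 1:100 dilutions (1:10 for Streptococcus and other slow growers); incubate 35-37° C, 20-24 h; score MIC as lowest concentration with no growth, slight haze or isolated colonies.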

[1] = system: Enterobacter aerogenes ATCC 13048; assay: as above; format: cell-based; conditions: Klebsiella aerogenes, ATCC13048, 24 h, Enterobacter aerogenes ATCC 13048; BHI agar, 20-24 h
Method in brief: as §1

[2] = system: Enterococcus faecium ATCC 8043; assay: as above; format: cell-based; conditions: Enterococcus faecium, ATCC8043, 24 h
Method in brief: as §1

Escherichia coli DC-2 = assay: as above; format: cell-based; conditions: Escherichia coli, DC2, 24 h, Escherichia coli DC-2; BHI agar, 20-24 h
Method in brief: as §1

Escherichia coli H560 = assay: as above; format: cell-based; conditions: Escherichia coli, H560, 24 h, Escherichia coli H560; BHI agar, 20-24 h
Method in brief: as §1

Escherichia coli SS = assay: as above; format: cell-based; conditions: Escherichia coli, 24 h, BHI agar, 20-24 h
Method in brief: as §1

[3] = system: Micrococcus luteus ATCC 4698; assay: as above; format: cell-based; conditions: Micrococcus luteus, ATCC4698, 24 h, BHI agar, 20-24 h
Method in brief: as §1

[4] = system: Micrococcus luteus ATCC 9341; assay: as above; format: cell-based; conditions: Micrococcus luteus, ATCC9341, 24 h, BHI agar, 20-24 h
Method in brief: as §1

[5] = system: Providencia stuartii CMX 640; assay: as above; format: cell-based; conditions: Providencia stuartii, CMX640, 24 h
Method in brief: as §1

[6] = system: Pseudomonas aeruginosa A5007; assay: as above; format: cell-based; conditions: Pseudomonas aeruginosa, A5007, 24 h
Method in brief: as §1

[7] = system: Pseudomonas aeruginosa BMH10; assay: as above; format: cell-based; conditions: Pseudomonas aeruginosa, BMH10, 24 h, BHI agar, 20-24 h
Method in brief: as §1

[8] = system: Pseudomonas aeruginosa K799/61; assay: as above; format: cell-based; conditions: Pseudomonas aeruginosa K799/61; BHI agar, 20-24 h; read-out: MIC
Method in brief: as §1

[9] = system: Pseudomonas aeruginosa K799/WT; assay: as above; format: cell-based; conditions: Pseudomonas aeruginosa, K799/WT, 24 h, Pseudomonas aeruginosa K799/WT; BHI agar, 20-24 h
Method in brief: as §1

Pseudomonas cepacia 2961 = assay: as above; format: cell-based; conditions: Burkholderia cepacia, 2961, 24 h, BHI agar, 20-24 h
Method in brief: as §1

[10] = system: Staphylococcus aureus 45 RAR2; assay: as above; format: cell-based; conditions: Staphylococcus aureus, 45RAR2, 24 h, BHI agar, 20-24 h
Method in brief: as §1

Staphylococcus aureus 45 = assay: as above; format: cell-based; conditions: BHI agar, 20-24 h, read-out: MIC
Method in brief: as §1

[11] = system: Staphylococcus aureus A5177; assay: as above; format: cell-based; conditions: Staphylococcus aureus, A5177, 24 h, Staphylococcus aureus A5177; BHI agar, 20-24 h
Method in brief: as §1

[12] = system: Staphylococcus aureus ATCC 6538P; assay: as above; format: cell-based; conditions: Staphylococcus aureus, ATCC6538P, 24 h, BHI agar, 20-24 h
Method in brief: as §1

[13] = system: Staphylococcus epidermidis 3519; assay: as above; format: cell-based; conditions: BHI agar, 20-24 h, read-out: MIC
Method in brief: as §1

[14] = system: Streptococcus agalactiae CMX 508; assay: as above; format: cell-based; conditions: Streptococcus agalactiae, CMX508, 24 h, BHI agar, 20-24 h
Method in brief: as §1

[15] = system: Streptococcus bovis A5169; assay: as above; format: cell-based; conditions: Streptococcus equinus, A5169, 24 h, BHI agar, 20-24 h
Method in brief: as §1

[16] = system: Streptococcus pyrogenes 2548 INDUC; assay: as above; format: cell-based; conditions: Streptococcus, 2548INDUC, 24 h, BHI agar, 20-24 h
Method in brief: as §1

[17] = system: Streptococcus pyrogenes EES61; assay: as above; format: cell-based; conditions: BHI agar, 20-24 h, read-out: MIC
Method in brief: as §1

[18] = system: Streptococcus pyogenes C-203; assay: In-vivo acute mouse protection assay; set-up: species or system Streptococcus pyogenes; female Swiss albino mice; conditions: dosed 1 and 5 h post-infection, observed 7 days
Procedure: (§2) An acute mouse protection test was conducted on ten mice with each of three concentrations of selected compounds of the invention. Each concentration was a four-fold dilution of the previous concentration. The initial concentration will vary with the microorganism with which the mouse is challenged.
(§3) The acute mouse protection test was conducted on female, Swiss albino mice, 18-20 grams in weight. […] To check the potency of the inoculum, a titration of the indicated test organism was carried out in control animals. The titration determines the LD50 for a particular microorganism. The treatment groups of animals were dosed orally, by gavage, or subcutaneously with the test compounds at 1 and 5 hours post-infection and observed for 7 days. The ED50 were calculated using the mortality data collected.

[19] = system: Streptococcus pneumoniae (ATCC 6303); assay: In-vivo acute mouse protection assay; set-up: species or system Streptococcus pneumoniae; female Swiss albino mice; conditions: dosed 1 and 5 h post-infection, observed 7 days, read-out: ED50
Procedure: as §2, §3

[20] = Pharmacokinetic evaluation in dogs after a 10 mg/kg dose; conditions: dog, plasma; for half-life: t1/2 (biological half life); for bioavailability: % ABS (percent absorbance), from AUC (absolute bioavailability); for Cmax: Cmax (maximum concentration in blood); for Tmax: Tmax (time to achieve maximum concentration in blood)
Procedure: Selected compounds of the present invention were formulated as solutions in dilute lactobionic acid at a concentration of 10 or 20 mg/ml. Groups of two or three dogs were given a 10 mg macrolide/kg intravenous bolus or oral dose (by gavage). Plasma samples, obtained at selected time points from 15 minutes to 32 hours after dosing, were assayed using reverse phase HPLC with electrochemical detection (parent drug) and microbiological assay (total microbiological activity). Plasma concentration time curves were subjected to multi exponential curve fitting to determine terminal elimination half life values. Area under the curve (AUC) values, calculated by the trapezoidal method, were used to calculate absolute bioavailability.

[21] = po, oral 10 mg/kg, HPLC (parent drug)
[22] = po, oral 10 mg/kg, microbiological assay

## CC[C@H]1OC(=O)[C@H](C)[C@@H](O[C@H]2C[C@@](C)(OC)[C@@H](O)[C@H](C)O2)[C@H](C)[C@@H](O[C@@H]2O[C@H](C)C[C@H](N(C)C)[C@H]2O)[C@](C)(O)C[C@@H](C)[C@@H]2O[C@@]1(C)[C@@H](O)[C@H]2C [Example 4, (9S,11S)-9-Deoxo-12-deoxy-9,12-epoxyerythromycin A]
Acinetobacter SP CMX 669
  MIC: 3.1 µg/mL (≈ 4.32 µM)
[1]
  MIC: 50 µg/mL (≈ 69.6 µM)
[2]
  MIC: 0.1 µg/mL (≈ 0.139 µM)
Escherichia coli DC-2
  MIC: 50 µg/mL (≈ 69.6 µM)
Escherichia coli H560
  MIC: 25 µg/mL (≈ 34.8 µM)
Escherichia coli SS
  MIC: 0.2 µg/mL (≈ 0.279 µM)
[3]
  MIC: 0.1 µg/mL (≈ 0.139 µM)
[4]
  MIC: 0.05 µg/mL (≈ 0.0696 µM)
[5]
  MIC: > 100 µg/mL
[6]
  MIC: > 100 µg/mL
[7]
  MIC: 50 µg/mL (≈ 69.6 µM)
[8]
  MIC: 0.39 µg/mL (≈ 0.543 µM)
[9]
  MIC: 100 µg/mL (≈ 139 µM)
Pseudomonas cepacia 2961
  MIC: > 100 µg/mL
[10]
  MIC: 0.39 µg/mL (≈ 0.543 µM)
Staphylococcus aureus 45
  MIC: 0.2 µg/mL (≈ 0.279 µM)
[11]
  MIC: 3.1 µg/mL (≈ 4.32 µM)
[12]
  MIC: 0.2 µg/mL (≈ 0.279 µM)
[13]
  MIC: 0.2 µg/mL (≈ 0.279 µM)
[14]
  MIC: 0.05 µg/mL (≈ 0.0696 µM)
[15]
  MIC: 0.02 µg/mL (≈ 0.0279 µM)
[16]
  MIC: 3.1 µg/mL (≈ 4.32 µM)
[17]
  MIC: 0.01 µg/mL (≈ 0.0139 µM)
[18]; C203, 168 h, oral
  ED50: 20 mg/kg
[18]; C203, sc, 168 h, subcutaneous
  ED50: 3.3 mg/kg
[19]; ATCC6303, 168 h, oral
  ED50: 20.4 mg/kg
[19]; ATCC6303, sc, 168 h, subcutaneous
  ED50: 1.3 mg/kg
[20]; iv, IV 10 mg/kg, HPLC (parent drug)
  half-life: 174 min
[20]; iv, IV 10 mg/kg, microbiological assay
  half-life: 174 min
[20]; [21]
  bioavailability: 69%
  Cmax: 3900 ng/mL
  Tmax: 15 min
  half-life: 174 min
[20]; [22]
  bioavailability: 75%
  Cmax: 4300 ng/mL
  Tmax: 24 min
  half-life: 162 min

From US5288709A, “Erythromycin derivatives” (priority 1991, dated 1994)
